Assay results taken from patent US7741344B2, “Process for preparing purified S-BEL and R-BEL and compositions thereof” (Washington University in St. Louis, priority 2002, dated 2010).
pIC50: −log10 of the molar value. Where two headings read alike, the source gives them in different places.

How the values were obtained:
[1] = system: MAPK (ERK2) phosphorylation; experiment: AVP-induced MAPK phosphorylation in A-10 cells (Western); type: cell-based, rat; conditions: 5 μM, 15 min, 1 μM AVP; FIG. 9
recombinant human iPLA2γ [2] = molecular target: T1, recombinant human iPLA2γ (Homo sapiens, UniProt Q9NP80); conditions: previous experiments (24, 31); cited from earlier work
T1 construct: Recombinant full-length iPLA2γ was expressed in Sf9 cells; made in house; host or cells: Sf9 cells (washed membrane fraction, not purified)
T1 sequence (Q9NP80 1-782): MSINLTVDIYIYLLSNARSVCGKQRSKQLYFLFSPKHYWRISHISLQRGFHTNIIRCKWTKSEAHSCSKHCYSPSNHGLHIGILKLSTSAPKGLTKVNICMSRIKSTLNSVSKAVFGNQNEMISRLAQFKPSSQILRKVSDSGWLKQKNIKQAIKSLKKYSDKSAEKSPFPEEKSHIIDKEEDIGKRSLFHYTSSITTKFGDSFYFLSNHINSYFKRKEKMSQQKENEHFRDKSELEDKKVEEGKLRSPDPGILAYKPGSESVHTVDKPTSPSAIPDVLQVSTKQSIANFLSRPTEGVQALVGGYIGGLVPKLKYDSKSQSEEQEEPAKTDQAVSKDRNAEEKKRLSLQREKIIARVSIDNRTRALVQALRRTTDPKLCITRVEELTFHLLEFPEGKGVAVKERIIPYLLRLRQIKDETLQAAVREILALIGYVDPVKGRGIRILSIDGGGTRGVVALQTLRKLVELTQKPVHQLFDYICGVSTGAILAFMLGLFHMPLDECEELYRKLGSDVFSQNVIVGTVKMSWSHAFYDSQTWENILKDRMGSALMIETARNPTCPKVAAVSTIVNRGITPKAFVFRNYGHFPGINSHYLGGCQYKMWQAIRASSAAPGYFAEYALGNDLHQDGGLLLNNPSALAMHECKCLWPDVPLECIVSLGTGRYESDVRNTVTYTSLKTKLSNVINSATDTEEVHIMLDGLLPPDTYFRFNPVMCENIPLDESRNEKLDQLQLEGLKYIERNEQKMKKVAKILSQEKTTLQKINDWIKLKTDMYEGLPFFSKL

[3] = system: purified recombinant iPLA2β; experiment: Assay of iPLA2β inhibition by BEL (radiolabeled phospholipid substrate); type: biochemical; conditions: FIG. 4A
Method: Assay of iPLA2β and iPLA2γ Inhibition by BEL—Purified recombinant iPLA2β or Sf9 cell membranes containing recombinant iPLA2γ were incubated with (R) BEL, (S) BEL, racemic BEL, or ethanol vehicle for 3 mm at 22° C. in the presence of 100 mM Tris-HCl (pH 7.0) and 4 mM EGTA (for iPLA2β) or 100 mM Tris-acetate (pH 8.0) and 4 mM EGTA (for iPLA2γ). The concentration of BEL used for each test ranged from 0 to 16 μM. L-α-1-palmitoyl-2-[1^14C]-arachidonyl-phosphatidylcholine (5 μM final concentration) or L-α-1-palmitoyl-2-[1-^14C]-oleoyl-phosphatidylcholine (5 μM final concentration) in ethanol was then added to each sample and incubated at 37° C. for 2 min. Reactions were terminated by extraction of radiolabeled products into butanol, and reactants and products were separated by thin layer chromatography using Whatman LK6D 60 Å Silica Gel plates with petroleum ether/ethyl ether/acetic acid (70:30:1) as the mobile phase. Regions corresponding to the migration of a fatty acid standard visualized by iodine staining were scraped into vials and radioactivity was quantified by scintillation spectrometry.

[4] = system: cytosolic PAP-1 in McA-RH7777 rat hepatoma cells; conditions: 100 μM BEL; (17); cited from earlier work
recombinant human iPLA2γ [5] = molecular target: T1, recombinant human iPLA2γ; experiment: Assay of iPLA2γ inhibition by BEL (Sf9 cell membranes, radiolabeled phospholipid substrate); type: biochemical
Method: Recombinant iPLA2 Enzymes—Recombinant iPLA2β was expressed and purified from Sf9 cells as previously described (35). Recombinant full-length iPLA2γ was expressed in Sf9 cells and the membrane fraction was washed and isolated as previously described (24).
Assay of iPLA2β and iPLA2γ Inhibition by BEL—Purified recombinant iPLA2β or Sf9 cell membranes containing recombinant iPLA2γ were incubated with (R) BEL, (S) BEL, racemic BEL, or ethanol vehicle for 3 mm at 22° C. in the presence of 100 mM Tris-HCl (pH 7.0) and 4 mM EGTA (for iPLA2β) or 100 mM Tris-acetate (pH 8.0) and 4 mM EGTA (for iPLA2γ). The concentration of BEL used for each test ranged from 0 to 16 μM. L-α-1-palmitoyl-2-[1^14C]-arachidonyl-phosphatidylcholine (5 μM final concentration) or L-α-1-palmitoyl-2-[1-^14C]-oleoyl-phosphatidylcholine (5 μM final concentration) in ethanol was then added to each sample and incubated at 37° C. for 2 min. Reactions were terminated by extraction of radiolabeled products into butanol, and reactants and products were separated by thin layer chromatography using Whatman LK6D 60 Å Silica Gel plates with petroleum ether/ethyl ether/acetic acid (70:30:1) as the mobile phase. Regions corresponding to the migration of a fatty acid standard visualized by iodine staining were scraped into vials and radioactivity was quantified by scintillation spectrometry.
Panel A—Purified recombinant iPLA2β (1 μg/ml) in 100 mM Tris-HCl, pH 7.3 containing 1 mM EGTA was preincubated at 22° C. for 3 mm in the presence of the indicated concentrations of (R)-, (S)-, or rac-BEL or ethanol vehicle alone (1% final concentration). Radiolabeled substrate (L-α-1-palmitoyl-2-[1-^14C]-arachidonyl-phosphatidylcholine, 5 μM final concentration) was then added to each reaction and incubated at 37° C. for 2 min. Reactions were terminated by extraction of remaining substrate and products into butanol, separation by TLC, and quantification of released radiolabeled fatty acid by scintillation spectrometry as described in Experimental Procedures. Results are representative of four separate tests. Panel B—Washed Sf9 cell membranes containing recombinant human iPLA2γ were preincubated for 3 min with the indicated concentrations of (R)-, (S)-, or racemic BEL or ethanol vehicle alone (1% final concentration) in 100 mM Tris-acetate, pH 8.0 containing 1 mM EGTA at 22° C. Radiolabeled substrate (L-α-1-palmitoyl-2-[1-^14C]-oleoyl-phosphatidylcholine, 5 μM final concentration) was then added to each reaction and incubated at 37° C. for 2 min. Reactions were terminated by extraction of remaining substrate and products into butanol, separation by TLC, and quantification of released radiolabeled fatty acid by scintillation spectrometry as described in “Experimental Procedures”. Results are representative of four separate tests.

Row | pIC50 (recombinant human iPLA2γ [5]; read-out: IC50 for iPLA2γ (range stated jointly for iPLA2β and iPLA2γ)) | selectivity for inhibition of iPLA2γ (recombinant human iPLA2γ [5]) [fold] | inhibition of iPLA2γ, fold more potent than (S)-BEL (recombinant human iPLA2γ [5]; 3 min preincubation, FIG. 4B) | SMILES | AVP-induced phosphorylation of ERK2 [1] | pIC50 (recombinant human iPLA2γ [2]) | inhibitory potency on iPLA2β relative to the enantiomers [3] | inhibition of cytosolic PAP-1 activity in McA-RH7777 cells [4] | inhibitory potency on iPLA2γ relative to the enantiomers (recombinant human iPLA2γ [5]; FIG. 4B) | selectivity for iPLA2γ than iPLA2β (recombinant human iPLA2γ [5]; in words)
1 | 5.52 to 6.30 |  |  | O=C1OC(=CBr)CCC1c1cccc2ccccc12 (racemic) [rac-BEL, Racemic (E)-6-(bromomethylene)-3-(1-naphthalenyl)-2H-tetrahydropyran-2-one] | not effected | ~5.52 | intermediate of that of (R)-BEL and (S)-BEL | not significantly inhibited | intermediate of that of (R)-BEL and (S)-BEL | 
2 |  | 10 | approximately 10 fold | O=C1O/C(=C/Br)CC[C@@H]1c1cccc2ccccc12 [(R)-BEL, (R)(E)-6-(bromomethylene)-3-(1-naphthalenyl)-2H-tetrahydropyran-2-one] | not effected |  |  |  |  | approximately an order of magnitude more selective
